# Reference: ChEMBL document CHEMBL6127043, “Design and synthesis of pyrano[2,3-c]pyrazole-4-aminoquinoline hybrids as effective antimalarial compounds” (Eur J Med Chem, 2024)
# Key:
# Plasmodium falciparum [1] = experiment: Antimalarial activity against chloroquine-resistant Plasmodium falciparum K1 incubated for 72 hrs by SYBR green I dye based fluorescence analysis; assay type: functional, organism-based; settings: K1, 72 h
# [2] = Selectivity index, ratio of IC50 for cytotoxicity against African green monkey Vero cells to IC50 for antimalarial activity against Plasmodium falciparum W2; assay type: toxicity, cell-based; settings: Vero cells versus Plasmodium falciparum W2, read-out: Ratio IC50
# Plasmodium falciparum [3] = experiment: Antimalarial activity against chloroquine-sensitive ring stage Plasmodium falciparum 3D7 infected in erythrocytes assessed as reduction in parasite growth measured at 48 hrs interval by Giemsa staining based microscopic analysis; assay type: functional, organism-based; settings: 3D7, Erythrocyte
# [4] = Selectivity index, ratio of IC50 for cytotoxicity against human WRL68 cells to IC50 for antimalarial activity against Plasmodium falciparum K1 infected in erythrocytes; assay type: toxicity, cell-based; settings: WRL68 cells versus Plasmodium falciparum K1 in erythrocytes, read-out: Ratio IC50
# [5] = Cytotoxicity against human WRL68 cells assessed as reduction in cell viability incubated for 72 hrs by MTT assay; assay type: toxicity, cell-based
# [6] = Selectivity index, ratio of IC50 for cytotoxicity against human WRL68 cells to IC50 for antimalarial activity against Plasmodium falciparum 3D7 infected in erythrocytes; assay type: toxicity, cell-based; settings: WRL68 cells versus Plasmodium falciparum 3D7 in erythrocytes, read-out: Ratio IC50
# Plasmodium falciparum [7] = experiment: Resistance index, ratio of IC50 for antimalarial activity against chloroquine resistant Plasmodium falciparum K1 infected in erythrocytes to IC50 for antimalarial activity against chloroquine sensitive Plasmodium falciparum 3D7 infected in erythrocytes; assay type: functional
# Plasmodium falciparum [8] = experiment: Antimalarial activity against chloroquine-resistant ring stage Plasmodium falciparum K1 infected in erythrocytes assessed as reduction in parasite growth measured at 48 hrs interval by Giemsa staining based microscopic analysis; assay type: functional, organism-based; settings: K1, Erythrocyte
# Plasmodium falciparum [9] = experiment: Antimalarial activity against Plasmodium falciparum NF54 incubated for 48 hrs by NBT reagent based assay; assay type: functional, organism-based; settings: NF54, 48 h
SMILES,IC50 (Plasmodium falciparum [1]),selectivity ratio [2],IC50 (Plasmodium falciparum [3]),selectivity ratio [4],IC50 at 72 h [5],selectivity ratio [6],Ratio IC50 (Plasmodium falciparum [7]),IC50 (Plasmodium falciparum [8]),IC50 (Plasmodium falciparum [9])
Clc1ccc2c(NCCn3cncc3C3CCCC3)ccnc2c1,340 nM,,,,,,,,
O=C1c2ccc(N3CCN(CCO)CC3)cc2C(=O)N1CCCNc1ccnc2cc(Cl)ccc12,,> 4200,,,,,,,
CCOC(=O)c1nn(CCNc2ccnc3cc(Cl)ccc23)c2c1C(c1ccccc1)C(C#N)=C(N)O2 (stereo not drawn),,,19 nM,195,81500 nM,4360,22.39,419 nM,
CCOC(=O)c1nn(CCNc2ccnc3cc(Cl)ccc23)c2c1C(c1ccc(O)cc1)C(C#N)=C(N)O2 (stereo not drawn),,,15 nM,18,48600 nM,3200,180.66,2750 nM,
CCOC(=O)c1nn(CCNc2ccnc3cc(Cl)ccc23)c2c1C(c1ccco1)C(C#N)=C(N)O2 (stereo not drawn),,,25 nM,230,47600 nM,1920,8.34,207 nM,
CCOC(=O)c1nn(CCNc2ccnc3cc(Cl)ccc23)c2c1C(c1cccc([N+](=O)[O-])c1)C(C#N)=C(N)O2 (stereo not drawn),,,28 nM,333,35400 nM,1260,3.8,106 nM,
CCOC(=O)c1nn(CCNc2ccnc3cc(Cl)ccc23)c2c1C(c1ccc(O)c(Br)c1)C(C#N)=C(N)O2 (stereo not drawn),,,23 nM,265,61600 nM,2650,10,232 nM,
CCOC(=O)c1nn(CCNc2ccnc3cc(Cl)ccc23)c2c1C(c1cccc(O)c1)C(C#N)=C(N)O2 (stereo not drawn),,,17 nM,51,68600 nM,3960,77.46,1340 nM,
CCOC(=O)c1nn(CCNc2ccnc3cc(Cl)ccc23)c2c1C(c1ccc(OC)cc1)C(C#N)=C(N)O2 (stereo not drawn),,,21 nM,514,131000 nM,6220,12.1,254 nM,
CCOC(=O)c1nn(CCNc2ccnc3cc(Cl)ccc23)c2c1C(c1c(O)ccc3ccccc13)C(C#N)=C(N)O2 (stereo not drawn),,,301 nM,334,6690 nM,22,0.07,20 nM,
CCOC(=O)c1nn(CCNc2ccnc3cc(Cl)ccc23)c2c1C(c1cccs1)C(C#N)=C(N)O2 (stereo not drawn),,,23 nM,1590,59500 nM,2570,1.62,37 nM,
CCOC(=O)c1nn(CCNc2ccnc3cc(Cl)ccc23)c2c1C(c1ccc(C#N)cc1)C(C#N)=C(N)O2 (stereo not drawn),,,19 nM,> 4920,> 183000 nM,> 9450,1.92,37 nM,
CCOC(=O)c1nn(CCNc2ccnc3cc(Cl)ccc23)c2c1C(c1ccc(OCC)cc1)C(C#N)=C(N)O2 (stereo not drawn),,,24 nM,81,6980 nM,290,3.57,86 nM,
CCOC(=O)c1nn(CCNc2ccnc3cc(Cl)ccc23)c2c1C(c1ccc([N+](=O)[O-])cc1)C(C#N)=C(N)O2 (stereo not drawn),,,110 nM,193,56900 nM,563,2.92,294 nM,
CCOC(=O)c1nn(CCNc2ccnc3cc(Cl)ccc23)c2c1C(c1cccc(OCC)c1)C(C#N)=C(N)O2 (stereo not drawn),,,68 nM,815,20900 nM,308,0.38,26 nM,
CCOC(=O)c1nn(CCNc2ccnc3cc(Cl)ccc23)c2c1C(c1ccc(Cl)cc1)C(C#N)=C(N)O2 (stereo not drawn),,,26 nM,252,12100 nM,467,1.85,48 nM,
CCOC(=O)c1nn(CCNc2ccnc3cc(Cl)ccc23)c2c1C(c1ccccn1)C(C#N)=C(N)O2 (stereo not drawn),,,21 nM,3780,90500 nM,4350,1.15,24 nM,
CCOC(=O)c1nn(CCNc2ccnc3cc(Cl)ccc23)c2c1C(c1ccc(O)cc1O)C(C#N)=C(N)O2 (stereo not drawn),,,19 nM,93,23200 nM,1220,13.13,250 nM,
CCOC(=O)c1nn(CCNc2ccnc3cc(Cl)ccc23)c2c1C(c1ccccc1OC)C(C#N)=C(N)O2 (stereo not drawn),,,15 nM,44,26100 nM,1730,39.18,592 nM,
CCOC(=O)c1nn(CCNc2ccnc3cc(Cl)ccc23)c2c1C(c1ccc(C(=O)O)cc1)C(C#N)=C(N)O2 (stereo not drawn),,,38 nM,411,86500 nM,2280,5.53,210 nM,
CCOC(=O)c1nn(CCNc2ccnc3cc(Cl)ccc23)c2c1C(c1ccc(Br)cc1)C(C#N)=C(N)O2 (stereo not drawn),,,33 nM,309,5850 nM,178,0.58,19 nM,
O=C(/C=C/c1ccccc1Br)c1ccc(S(=O)(=O)NCCCNc2ccnc3cc(Cl)ccc23)cc1,,,,,,,,,100 nM
CCN(CC)CCCC(C)Nc1ccnc2cc(Cl)ccc12 (stereo not drawn) [CHLOROQUINE PHOSPHATE],,,,,60600 nM,,,,
